Measurements published in ChEMBL document CHEMBL3885861, “Open TG-GATES”.

Organism: Rattus norvegicus
Assay: Open TG-GATES - Regimen: Single
Type: toxicity, organism-based, Sprague-Dawley
Set-up: regimen Single, gender Male, age 6 weeks
Conditions: in vivo, po, 1 mg/kg, route gavage, dose level Low; for APTT / Bas / Eos / Fbg / Hb / Ht / Lym / MCH / MCHC / MCV / Mono / Neu / PT / Plat / RBC / Ret / WBC: tissue Blood; for KIDNEY_L / KIDNEY_R / KIDNEY_TOTAL: tissue Kidney; for LIVER: tissue Liver; for A/G / ALP / ALT / AST / BUN / CRE / Ca / Cl / DBIL / GLC / IP / K / LDH / Na / PL / RALB / TBIL / TC / TG / TP / gamma-GTP: tissue Plasma

`CN1C(C(=O)Nc2ccccn2)=C(O)c2sc(Cl)cc2S1(=O)=O` [LORNOXICAM] showed a TERMINAL_BW (3 h) of 222.5 g, an APTT (3 h) of 19.4 s and a Bas (3 h) of 0.6%. The Eos (3 h) was 1%, the Fbg (3 h) was 219 mg/dL and the Hb (3 h) was 13.5 g/dL. For the same compound, the Ht (3 h) was 39.8%, the Lym (3 h) was 78.2% and the MCH (3 h) was 21.5 pg. For the same compound, the MCHC (3 h) was 33.9%, the MCV (3 h) was 63.4 fL and the Mono (3 h) was 2.6%. For the same compound, the Neu (3 h) was 17.4%, the PT (3 h) was 11.6 s and the Plat (3 h) was 128.4 x10_4/uL. It also gave an RBC (3 h) of 627.6 x10_4/ul, a Ret (3 h) of 7% and a WBC (3 h) of 99.9 x10_2/uL. For the same compound, the KIDNEY_L (3 h) was 1 g, the KIDNEY_R (3 h) was 1 g and the KIDNEY_TOTAL (3 h) was 2 g. It also gave an LIVER (3 h) of 10 g, an A/G (3 h) of 1.7 and an ALP (3 h) of 878.4 IU/L. The ALT (3 h) was 40.6 IU/L, the AST (3 h) was 71.8 IU/L and the BUN (3 h) was 11 mg/dL. The CRE (3 h) was 0.3 mg/dL, the Ca (3 h) was 10.7 mg/dL and the Cl (3 h) was 102.6 meq/L. For the same compound, the DBIL (3 h) was 0.072 mg/dL, the GLC (3 h) was 194.2 mg/dL and the IP (3 h) was 9.2 mg/dL. The K (3 h) was 3.7 meq/L, the LDH (3 h) was 172 IU/L and the Na (3 h) was 140.4 meq/L. For the same compound, the PL (3 h) was 149.8 mg/dL, the RALB (3 h) was 3.5 g/dL and the TBIL (3 h) was 0.1 mg/dL. It also gave a TC (3 h) of 81.8 mg/dL, a TG (3 h) of 64.2 mg/dL and a TP (3 h) of 5.6 g/dL. For the same compound, the gamma-GTP (3 h) was 1.2 IU/L, the TERMINAL_BW (6 h) was 223 g and the APTT (6 h) was 19.9 s. It also gave a Bas (6 h) of 0.8%, an Eos (6 h) of 1% and a Fbg (6 h) of 211 mg/dL. For the same compound, the Hb (6 h) was 13.1 g/dL, the Ht (6 h) was 38.9% and the Lym (6 h) was 74.8%. It also gave an MCH (6 h) of 20.8 pg, an MCHC (6 h) of 33.8% and an MCV (6 h) of 61.7 fL. It also gave a Mono (6 h) of 3.2%, a Neu (6 h) of 19.8% and a PT (6 h) of 12.2 s. The Plat (6 h) was 126.1 x10_4/uL, the RBC (6 h) was 629.8 x10_4/ul and the Ret (6 h) was 6.7%. For the same compound, the WBC (6 h) was 117.6 x10_2/uL, the KIDNEY_L (6 h) was 1 g and the KIDNEY_R (6 h) was 1 g. For the same compound, the KIDNEY_TOTAL (6 h) was 2 g, the LIVER (6 h) was 9.3 g and the A/G (6 h) was 1.7. For the same compound, the ALP (6 h) was 908.8 IU/L, the ALT (6 h) was 44.4 IU/L and the AST (6 h) was 79.6 IU/L. It also gave a BUN (6 h) of 11.2 mg/dL, a CRE (6 h) of 0.3 mg/dL and a Ca (6 h) of 10.6 mg/dL. For the same compound, the Cl (6 h) was 104 meq/L, the DBIL (6 h) was 0.074 mg/dL and the GLC (6 h) was 190.2 mg/dL. For the same compound, the IP (6 h) was 8.6 mg/dL, the K (6 h) was 4 meq/L and the LDH (6 h) was 184.8 IU/L. The Na (6 h) was 140.6 meq/L, the PL (6 h) was 134.8 mg/dL and the RALB (6 h) was 3.5 g/dL. It also gave a TBIL (6 h) of 0.1 mg/dL, a TC (6 h) of 72.2 mg/dL and a TG (6 h) of 61.8 mg/dL. The TP (6 h) was 5.5 g/dL, the gamma-GTP (6 h) was 1.2 IU/L and the TERMINAL_BW (9 h) was 220.2 g. For the same compound, the APTT (9 h) was 19.1 s, the Bas (9 h) was 0.6% and the Eos (9 h) was 0.8%. It also gave a Fbg (9 h) of 220.4 mg/dL, a Hb (9 h) of 13.5 g/dL and a Ht (9 h) of 40.3%. For the same compound, the Lym (9 h) was 75%, the MCH (9 h) was 21.2 pg and the MCHC (9 h) was 33.5%. The MCV (9 h) was 63.3 fL, the Mono (9 h) was 3.4% and the Neu (9 h) was 20.4%. The PT (9 h) was 12.2 s, the Plat (9 h) was 119.8 x10_4/uL and the RBC (9 h) was 636.4 x10_4/ul. It also gave a Ret (9 h) of 7.4%, a WBC (9 h) of 109.6 x10_2/uL and a KIDNEY_L (9 h) of 1 g. The KIDNEY_R (9 h) was 1 g, the KIDNEY_TOTAL (9 h) was 2 g and the LIVER (9 h) was 8.9 g. The A/G (9 h) was 1.6, the ALP (9 h) was 866.2 IU/L and the ALT (9 h) was 37.8 IU/L. The AST (9 h) was 68.6 IU/L, the BUN (9 h) was 10.6 mg/dL and the CRE (9 h) was 0.3 mg/dL. For the same compound, the Ca (9 h) was 10.5 mg/dL, the Cl (9 h) was 103 meq/L and the DBIL (9 h) was 0.072 mg/dL. The GLC (9 h) was 197.8 mg/dL, the IP (9 h) was 9.1 mg/dL and the K (9 h) was 4.1 meq/L. The LDH (9 h) was 158.6 IU/L, the Na (9 h) was 141 meq/L and the PL (9 h) was 132.8 mg/dL. For the same compound, the RALB (9 h) was 3.4 g/dL, the TBIL (9 h) was 0.1 mg/dL and the TC (9 h) was 73.2 mg/dL. It also gave a TG (9 h) of 57.8 mg/dL, a TP (9 h) of 5.5 g/dL and a gamma-GTP (9 h) of 1.2 IU/L. It also gave a TERMINAL_BW (24 h) of 238.6 g, an APTT (24 h) of 19.3 s and a Bas (24 h) of 0.4%. The Eos (24 h) was 0.8%, the Fbg (24 h) was 251 mg/dL and the Hb (24 h) was 13 g/dL. It also gave a Ht (24 h) of 38.9%, a Lym (24 h) of 69.4% and an MCH (24 h) of 21.3 pg. For the same compound, the MCHC (24 h) was 33.4%, the MCV (24 h) was 63.6 fL and the Mono (24 h) was 3.2%. The Neu (24 h) was 26%, the PT (24 h) was 11.8 s and the Plat (24 h) was 121.2 x10_4/uL. For the same compound, the RBC (24 h) was 612.8 x10_4/ul, the Ret (24 h) was 6.9% and the WBC (24 h) was 134.5 x10_2/uL. The KIDNEY_L (24 h) was 1 g, the KIDNEY_R (24 h) was 1 g and the KIDNEY_TOTAL (24 h) was 2 g. It also gave an LIVER (24 h) of 11.4 g, an A/G (24 h) of 1.5 and an ALP (24 h) of 822 IU/L. For the same compound, the ALT (24 h) was 39.6 IU/L, the AST (24 h) was 68.8 IU/L and the BUN (24 h) was 14.8 mg/dL. The CRE (24 h) was 0.4 mg/dL, the Ca (24 h) was 10.8 mg/dL and the Cl (24 h) was 104 meq/L. It also gave a DBIL (24 h) of 0.098 mg/dL, a GLC (24 h) of 203.6 mg/dL and an IP (24 h) of 7.6 mg/dL. For the same compound, the K (24 h) was 4.1 meq/L, the LDH (24 h) was 190.4 IU/L and the Na (24 h) was 141 meq/L. For the same compound, the PL (24 h) was 145.2 mg/dL, the RALB (24 h) was 3.2 g/dL and the TBIL (24 h) was 0.2 mg/dL. It also gave a TC (24 h) of 73.8 mg/dL, a TG (24 h) of 100.2 mg/dL and a TP (24 h) of 5.4 g/dL. The gamma-GTP (24 h) was 1.4 IU/L.
